The values below come from patent publication US8614327B2 (Vertex Pharmaceuticals Incorporated, priority 2004, dated 2013).

As usually defined, the EC50 is the concentration needed to bring the measured effect to its halfway point.

The structures appear in SMILES notation. A value given as a limit tells only on which side of the number the result lay.

The experiment deals with T1, ΔF508-CFTR (Homo sapiens, UniProt P13569, DEL508-508).
T1 construct: expressed in transfected cells
The experiment is described as follows: Membrane potential optical (FRET/VIPR) assay, identification of potentiator compounds. Format: cell-based. The settings on record: Table 3, assay not given; for % Activity: relative efficacy. A digest of the protocol: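 NIH3T3 mouse fibroblasts stably expressing ΔF508-CFTR, temperature-corrected 24 h at 27° C., read on VIPR by FRET between CC2-DMPE and DiSBAC2(3). Potentiators identified in a double-addition format, first adding chloride-free (gluconate) medium with or without compound.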

T1 sequence (P13569 with tags, fused parts or gaps DEL508-508): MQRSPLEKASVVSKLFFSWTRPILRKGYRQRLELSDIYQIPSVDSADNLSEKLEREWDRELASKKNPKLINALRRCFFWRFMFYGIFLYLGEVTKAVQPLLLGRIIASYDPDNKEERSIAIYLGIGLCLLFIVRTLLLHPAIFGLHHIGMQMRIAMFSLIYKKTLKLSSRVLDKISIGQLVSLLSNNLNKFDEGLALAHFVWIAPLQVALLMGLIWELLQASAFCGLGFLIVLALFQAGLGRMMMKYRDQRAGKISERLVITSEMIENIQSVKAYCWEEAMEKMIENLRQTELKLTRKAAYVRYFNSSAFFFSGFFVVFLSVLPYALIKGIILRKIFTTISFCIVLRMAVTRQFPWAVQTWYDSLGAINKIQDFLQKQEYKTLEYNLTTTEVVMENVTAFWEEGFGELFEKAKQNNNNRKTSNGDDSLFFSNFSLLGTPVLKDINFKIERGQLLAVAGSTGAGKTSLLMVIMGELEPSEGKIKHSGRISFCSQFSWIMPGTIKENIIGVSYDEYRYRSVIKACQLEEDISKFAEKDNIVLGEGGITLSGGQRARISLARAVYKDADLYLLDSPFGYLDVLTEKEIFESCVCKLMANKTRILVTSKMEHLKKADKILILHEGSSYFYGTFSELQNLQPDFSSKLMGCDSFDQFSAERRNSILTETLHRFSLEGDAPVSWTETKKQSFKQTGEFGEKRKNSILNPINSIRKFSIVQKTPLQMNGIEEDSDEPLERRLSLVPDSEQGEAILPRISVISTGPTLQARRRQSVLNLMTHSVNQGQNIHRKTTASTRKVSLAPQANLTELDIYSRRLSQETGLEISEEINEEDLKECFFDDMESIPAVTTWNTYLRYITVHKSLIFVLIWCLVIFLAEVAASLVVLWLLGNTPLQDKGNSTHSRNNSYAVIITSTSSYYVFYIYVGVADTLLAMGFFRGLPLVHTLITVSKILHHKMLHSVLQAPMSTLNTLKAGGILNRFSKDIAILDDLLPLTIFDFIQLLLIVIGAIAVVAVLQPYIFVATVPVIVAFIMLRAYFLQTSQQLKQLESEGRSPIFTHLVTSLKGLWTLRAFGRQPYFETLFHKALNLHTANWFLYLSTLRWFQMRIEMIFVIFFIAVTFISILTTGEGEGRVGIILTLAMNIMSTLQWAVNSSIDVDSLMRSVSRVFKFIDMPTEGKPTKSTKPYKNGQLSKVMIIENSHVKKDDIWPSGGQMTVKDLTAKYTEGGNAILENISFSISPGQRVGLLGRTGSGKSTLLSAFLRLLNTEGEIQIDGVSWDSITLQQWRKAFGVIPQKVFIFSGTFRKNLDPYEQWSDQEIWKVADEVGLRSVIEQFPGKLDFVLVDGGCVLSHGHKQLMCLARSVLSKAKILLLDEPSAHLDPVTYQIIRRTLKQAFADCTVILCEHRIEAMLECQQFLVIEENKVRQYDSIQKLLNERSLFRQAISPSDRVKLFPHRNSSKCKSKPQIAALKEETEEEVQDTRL

In the case of `Cc1ccc2c(c1)c(=O)c(C(=O)Nc1ccccc1)cn2C` [Compound 394, 1,6-dimethyl-4-oxo-N-phenyl-1H-quinoline-3-carboxamide], the EC50 lay within 25 to 60 µM and the “% Activity” value was “+ (<25%)”.

With `O=C(Nc1cc(O)c(C23CC4CC(CC(C4)C2)C3)cc1F)c1cnc2ccccc2c1O` [Compound 395, N-[4-(1-adamantyl)-2-fluoro-5-hydroxy-phenyl]-4-hydroxy-quinoline-3-carboxamide], the EC50 was less than 10 µM and the “% Activity” value is reported as “++ (between 25% to 100%)”.

With `CC(C)(CNC(=O)OCC1CCOC1)c1ccc(NC(=O)c2c[nH]c3ccccc3c2=O)cc1` (centres unmarked) [Compound 396, [2-methyl-2-[4-[(4-oxo-1H-quinolin-3-yl)carbonylamino]phenyl]-propyl]aminoformic acid tetrahydrofuran-3-ylmethyl ester], the EC50 lay in the range of 10 to 25 µM and the “% Activity” value is “++ (between 25% to 100%)”.

For `O=C(Nc1ccc(-c2ccccc2)cc1)c1c[nH]c2ccccc2c1=O` [Compound 397, 4-oxo-N-(4-phenylphenyl)-1H-quinoline-3-carboxamide], the EC50 was less than 10 µM and the “% Activity” value was “++ (between 25% to 100%)”.

As for `Cc1ccc(S(=O)(=O)Nc2ccccc2NC(=O)c2c[nH]c3ccccc3c2=O)cc1` [Compound 398, 4-oxo-N-[2-(p-tolylsulfonylamino)phenyl]-1H-quinoline-3-carboxamide], the EC50 is 10 to 25 µM and the “% Activity” value was “++ (between 25% to 100%)”.

For the compound `CNc1ccc(C(C)C)c(NC(=O)c2c[nH]c3ccccc3c2=O)c1` [Compound 399, N-(2-isopropyl-5-methylamino-phenyl)-4-oxo-1H-quinoline-3-carboxamide], the EC50 is less than 10 µM and the “% Activity” value is “++ (between 25% to 100%)”.

`O=C(Nc1ccc(N2CCOCC2)nc1)c1c[nH]c2ccccc2c1=O` [Compound 400, N-(6-morpholino-3-pyridyl)-4-oxo-1H-quinoline-3-carboxamide]: the EC50 was in the range of 25 to 60 µM and the “% Activity” value is “+ (<25%)”.

Regarding `Cc1cccc(-c2ccccc2NC(=O)c2c[nH]c3ccccc3c2=O)c1C` [Compound 401, N-[2-(2,3-dimethylphenyl)phenyl]-4-oxo-1H-quinoline-3-carboxamide], the EC50 is less than 10 µM and the “% Activity” value is reported as “++ (between 25% to 100%)”.

Take `O=C(Nc1ccc(-c2ccccc2)cn1)c1c[nH]c2ccccc2c1=O` [Compound 402, 4-oxo-N-(5-phenyl-2-pyridyl)-1H-quinoline-3-carboxamide]: the EC50 is less than 10 µM and the “% Activity” value is given as “+ (<25%)”.

Turning to `CC1(c2cc(F)c(NC(=O)c3cnc4ccccc4c3O)cc2O)CCCCCCC1` [Compound 403, N-[2-fluoro-5-hydroxy-4-(1-methylcyclooctyl)-phenyl]-4-hydroxy-quinoline-3-carboxamide], the concentration giving a half-maximal response (EC50) is less than 10 µM and the “% Activity” value is recorded as “++ (between 25% to 100%)”.

For `COc1cccc(OC)c1-c1cc2cc[nH]c2cc1NC(=O)c1c[nH]c2ccccc2c1=O` [Compound 404, N-[5-(2,6-dimethoxyphenyl)-1H-indol-6-yl]-4-oxo-1H-quinoline-3-carboxamide], the EC50 is less than 10 µM and the “% Activity” value is reported as “++ (between 25% to 100%)”.

Consider `O=C(Nc1ccc(Cl)cc1)c1c[nH]c2ccccc2c1=O` [Compound 405, N-(4-chlorophenyl)-4-oxo-1H-quinoline-3-carboxamide], for which the concentration for a half-maximal effect (EC50) is less than 10 µM and the “% Activity” value is recorded as “++ (between 25% to 100%)”.

`CN(c1ccc(F)cc1)S(=O)(=O)c1ccc2[nH]cc(C(=O)Nc3cc4[nH]ccc4cc3C(C)(C)C)c(=O)c2c1` [Compound 406, 6-[(4-fluorophenyl)-methyl-sulfamoyl]-4-oxo-N-(5-tert-butyl-1H-indol-6-yl)-1H-quinoline-3-carboxamide]: the EC50 was less than 10 µM and the “% Activity” value is on record as “++ (between 25% to 100%)”.

On to `CC(C)(C)c1cc(F)c(NC(=O)c2c[nH]c3cccc(O)c3c2=O)cc1O` [Compound 407, N-(2-fluoro-5-hydroxy-4-tert-butyl-phenyl)-5-hydroxy-4-oxo-1H-quinoline-3-carboxamide], for which the EC50 was less than 10 µM and the “% Activity” value is listed as “++ (between 25% to 100%)”.

For `COc1cccc(NC(=O)c2c[nH]c3ccccc3c2=O)c1` [Compound 408, N-(3-methoxyphenyl)-4-oxo-1H-quinoline-3-carboxamide], the concentration for a half-maximal effect (EC50) is less than 10 µM and the “% Activity” value was “++ (between 25% to 100%)”.

With `CCc1ccc(N(C)C)cc1NC(=O)c1c[nH]c2ccccc2c1=O` [Compound 409, N-(5-dimethylamino-2-ethyl-phenyl)-4-oxo-1H-quinoline-3-carboxamide], the EC50 was less than 10 µM and the “% Activity” value is reported as “++ (between 25% to 100%)”.

Consider `O=C(Nc1ccccc1-c1ccc(Oc2ccccc2)cc1)c1c[nH]c2ccccc2c1=O` [Compound 410, 4-oxo-N-[2-(4-phenoxyphenyl)phenyl]-1H-quinoline-3-carboxamide], for which the EC50 was less than 10 µM and the “% Activity” value was “+++ (>100%)”.

As for `O=C(Nc1ccccc1)c1c[nH]c2cc(Cl)ccc2c1=O` [Compound 411, 7-chloro-4-oxo-N-phenyl-1H-quinoline-3-carboxamide], the EC50 was less than 10 µM and the “% Activity” value was “++ (between 25% to 100%)”.

In the case of `CCOC(=O)c1c(NC(=O)c2c[nH]c3ccccc3c2=O)ccc2cc[nH]c12` [Compound 412, 6-[(4-oxo-1H-quinolin-3-yl)carbonylamino]-1H-indole-7-carboxylic acid ethyl ester], the EC50 is less than 10 µM and the “% Activity” value is “++ (between 25% to 100%)”.

In the case of `O=C(Nc1ccccc1Oc1ccccc1)c1c[nH]c2ccccc2c1=O` [Compound 413, 4-oxo-N-(2-phenoxyphenyl)-1H-quinoline-3-carboxamide], the EC50 is less than 10 µM and the “% Activity” value is reported as “++ (between 25% to 100%)”.

As for `O=C(Nc1ccc2nc[nH]c2c1)c1c[nH]c2ccccc2c1=O` [Compound 414, N-(3H-benzoimidazol-5-yl)-4-oxo-1H-quinoline-3-carboxamide], the 50% effective concentration (EC50) fell in the range of 25 to 60 µM and the “% Activity” value is on record as “+ (<25%)”.

For the compound `COc1c(C(=O)Nc2ccc(C(C)(C)C)c(O)c2)cnc2ccccc12` [Compound 415, N-(3-Hydroxy-4-tert-butyl-phenyl)-4-methoxy-quinoline-3-carboxamide], the EC50 is less than 10 µM and the “% Activity” value was “++ (between 25% to 100%)”.

For the compound `CCCOC(=O)NCC(C)(C)c1ccc(NC(=O)c2c[nH]c3ccccc3c2=O)cc1` [Compound 416, [2-methyl-2-[4-[(4-oxo-1H-quinolin-3-yl)carbonylamino]phenyl]-propyl]aminoformic acid propyl ester], the EC50 is less than 10 µM and the “% Activity” value was “++ (between 25% to 100%)”.

As to `O=C(Nc1ccccc1-c1csc2ccccc12)c1c[nH]c2ccccc2c1=O` [Compound 417, N-(2-(benzo[b]thiophen-3-yl)phenyl)-1,4-dihydro-4-oxoquinoline-3-carboxamide], the EC50 is less than 10 µM and the “% Activity” value was “++ (between 25% to 100%)”.

Turning to `CN(C)c1cccc(NC(=O)c2c[nH]c3ccccc3c2=O)c1` [Compound 418, N-(3-dimethylaminophenyl)-4-oxo-1H-quinoline-3-carboxamide], the EC50 was 10 to 25 µM and the “% Activity” value is reported as “++ (between 25% to 100%)”.
